Data published in PubChem BioAssay (NCI).
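Tested at 5 concentrations; 48 h exposure; 96-well plates; endpoints linearly interpolated, else capped at highest concentration. Abbreviation: GI50, concentration required for 50% inhibition of growth. TGI: concentration producing complete growth inhibition.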 *1 amine or outer side, *2 acyl side, *3 side chain or, on linkers, in order; H or OH if unused. Where a SMILES comes first, the peptide text is derived from it. Bridges are numbered along the chain shown (N, C = ends). Roman numbers before positions name the chains, in order. [ ]: non-standard residue; d: D form. ξ: configuration not given here. Actinocin(1to9) = Cc1c2oc3c(C)ccc(C(=O)[*:2])c3nc-2c(C(=O)[*:1])c(N)c1=O; Pro(4-oxo) = O=C1CN[C@H](C(=O)O)C1; Thr(3ξ) = CC(O)[C@H](N)C(=O)O; NMeV = CN[C@H](C(=O)O)C(C)C; Sar = CNCC(=O)O

Experiments:
Experiment in all cases: inhibition of tumour cell growth, NCI panel, 48 h
[1] = system: 786-0 renal
[2] = system: A498 renal
[3] = system: BT-549 breast
[4] = system: CCRF-CEM leukemia
[5] = system: COLO 205 colon
[6] = system: DU-145 prostate
[7] = system: EKVX NSCLC
[8] = system: HCC-2998 colon
[9] = system: HCT-15 colon
[10] = system: HL-60(TB) leukemia
[11] = system: HOP-62 NSCLC
[12] = system: HOP-92 NSCLC
[13] = system: HS 578T breast
[14] = system: IGROV1 ovarian
[15] = system: K-562 leukemia
[16] = system: KM12 colon
[17] = system: M14 melanoma
[18] = system: MALME-3M melanoma
[19] = system: MDA-MB-231 breast
[20] = system: MDA-MB-435
[21] = system: MDA-MB-468 breast
[22] = system: MOLT-4 leukemia
[23] = system: NCI-H23 lung
[24] = system: NCI-H460 lung
[25] = system: NCI-H522 lung
[26] = system: NCI/ADR-RES ovarian
[27] = system: OVCAR-3 ovarian
[28] = system: OVCAR-4 ovarian
[29] = system: OVCAR-5 ovarian
[30] = system: OVCAR-8 ovarian
[31] = system: PC-3 prostate
[32] = system: RPMI-8226 leukemia
[33] = system: RXF 393 renal
[34] = system: SF-268 CNS
[35] = system: SF-295 CNS
[36] = system: SF-539 CNS
[37] = system: SK-MEL-2 melanoma
[38] = system: SK-MEL-28 melanoma
[39] = system: SK-MEL-5 melanoma
[40] = system: SK-OV-3 ovarian
[41] = system: SN12C renal
[42] = system: SNB-19 CNS
[43] = system: SNB-75 CNS
[44] = system: SR leukemia
[45] = system: SW-620 colon
[46] = system: T-47D breast
[47] = system: TK-10 renal
[48] = system: U251 CNS
[49] = system: UACC-62 melanoma

With `Cc1c2oc3c(C)ccc(C(=O)N[C@@H]4C(=O)N[C@H](C(C)C)C(=O)N5CCC[C@H]5C(=O)N(C)CC(=O)N(C)[C@@H](C(C)C)C(=O)OC4C)c3nc-2c(C(=O)N[C@@H]2C(=O)N[C@H](C(C)C)C(=O)N3CC(=O)C[C@H]3C(=O)N(C)CC(=O)N(C)[C@@H](C(C)C)C(=O)OC2C)c(N)c1=O` (stereo partly drawn) (I: [Thr(3ξ)][dV][Pro(4-oxo)][Sar][NMeV] / II: [Thr(3ξ)][dV]P[Sar][NMeV]; ester I:1-I:C, II:1-II:C; linker I:N-II:N via Actinocin(1to9)) as the compound, how does the GI50 [1] read?
The GI50 was less than 10 nM.

And the TGI [1]?
The TGI was 10300 nM.

And the GI50 [2]?
The GI50 was less than 10 nM.

What about the TGI [2] of the same compound?
The TGI was less than 10 nM.

What about the GI50 [3] of the same compound?
Its GI50 is less than 10 nM.

What about the TGI [3] of the same compound?
Its TGI is less than 10 nM.

And the GI50 [4]?
The GI50 was less than 10 nM.

What about the TGI [4] of the same compound?
The TGI was 35.2 nM.

What about the GI50 [5] of the same compound?
The GI50 was less than 10 nM.

And the TGI [5]?
The TGI was less than 10 nM.

And the GI50 [6]?
Its GI50 is less than 10 nM.

And the TGI [6]?
Its TGI is 30300 nM.

And the GI50 [7]?
The GI50 was less than 10 nM.

What about the TGI [7] of the same compound?
Its TGI is less than 33.2 nM.

And the GI50 [8]?
Its GI50 is less than 10 nM.

What about the TGI [8] of the same compound?
Its TGI is less than 11.4 nM.

And the GI50 [9]?
The GI50 was less than 10 nM.

What about the TGI [9] of the same compound?
The TGI was 10100 nM.

What about the GI50 [10] of the same compound?
Its GI50 is less than 10 nM.

And the TGI [10]?
The TGI was 48.3 nM.

And the GI50 [11]?
Its GI50 is less than 10 nM.

And the TGI [11]?
Its TGI is less than 10 nM.

And the GI50 [12]?
Its GI50 is less than 10 nM.

What about the TGI [12] of the same compound?
Its TGI is less than 10 nM.

And the GI50 [13]?
Its GI50 is less than 10 nM.

And the TGI [13]?
The TGI was 197 nM.

What about the GI50 [14] of the same compound?
The GI50 was less than 10 nM.

What about the TGI [14] of the same compound?
The TGI was 4590 nM.

What about the GI50 [15] of the same compound?
The GI50 was less than 10 nM.

And the TGI [15]?
Its TGI is 163 nM.

And the GI50 [16]?
Its GI50 is less than 10 nM.

What about the TGI [16] of the same compound?
The TGI was 6980 nM.

What about the GI50 [17] of the same compound?
Its GI50 is less than 10 nM.

And the TGI [17]?
The TGI was less than 21.5 nM.

And the GI50 [18]?
The GI50 was less than 10 nM.

And the TGI [18]?
The TGI was less than 10 nM.

And the GI50 [19]?
Its GI50 is less than 10 nM.

And the TGI [19]?
Its TGI is 16.7 nM.

What about the GI50 [20] of the same compound?
Its GI50 is less than 10 nM.

And the TGI [20]?
Its TGI is less than 10 nM.

What about the GI50 [21] of the same compound?
Its GI50 is less than 10 nM.

What about the TGI [21] of the same compound?
Its TGI is less than 10 nM.

What about the GI50 [22] of the same compound?
The GI50 was less than 10 nM.

What about the TGI [22] of the same compound?
Its TGI is 25.2 nM.

And the GI50 [23]?
The GI50 was less than 10 nM.

And the TGI [23]?
Its TGI is less than 10 nM.

And the GI50 [24]?
Its GI50 is less than 10 nM.

What about the TGI [24] of the same compound?
Its TGI is 10300 nM.

And the GI50 [25]?
Its GI50 is less than 10 nM.

What about the TGI [25] of the same compound?
The TGI was less than 10 nM.

What about the GI50 [26] of the same compound?
The GI50 was 52 nM.

What about the TGI [26] of the same compound?
Its TGI is 1060 nM.

What about the GI50 [27] of the same compound?
Its GI50 is less than 10 nM.

What about the TGI [27] of the same compound?
Its TGI is 1980 nM.

What about the GI50 [28] of the same compound?
Its GI50 is less than 10 nM.

What about the TGI [28] of the same compound?
The TGI was 4600 nM.

What about the GI50 [29] of the same compound?
The GI50 was less than 10 nM.

And the TGI [29]?
Its TGI is 3200 nM.

And the GI50 [30]?
Its GI50 is less than 10 nM.

What about the TGI [30] of the same compound?
The TGI was 17700 nM.

And the GI50 [31]?
The GI50 was less than 10 nM.

What about the TGI [31] of the same compound?
The TGI was 294 nM.

And the GI50 [32]?
The GI50 was less than 10 nM.

And the TGI [32]?
The TGI was 14.7 nM.

And the GI50 [33]?
The GI50 was less than 10 nM.

And the TGI [33]?
The TGI was less than 10 nM.

What about the GI50 [34] of the same compound?
Its GI50 is less than 10 nM.

What about the TGI [34] of the same compound?
The TGI was 1100 nM.

And the GI50 [35]?
The GI50 was less than 10 nM.

And the TGI [35]?
The TGI was 92 nM.

What about the GI50 [36] of the same compound?
The GI50 was less than 10 nM.

And the TGI [36]?
The TGI was less than 10 nM.

What about the GI50 [37] of the same compound?
Its GI50 is less than 10 nM.

What about the TGI [37] of the same compound?
Its TGI is less than 10 nM.

What about the GI50 [38] of the same compound?
Its GI50 is less than 10 nM.

What about the TGI [38] of the same compound?
Its TGI is less than 10 nM.

What about the GI50 [39] of the same compound?
The GI50 was less than 10 nM.

What about the TGI [39] of the same compound?
Its TGI is less than 10 nM.

And the GI50 [40]?
The GI50 was less than 10 nM.

And the TGI [40]?
The TGI was 490 nM.

What about the GI50 [41] of the same compound?
The GI50 was less than 10 nM.

What about the TGI [41] of the same compound?
The TGI was 579 nM.

And the GI50 [42]?
The GI50 was less than 10 nM.

What about the TGI [42] of the same compound?
Its TGI is 172 nM.

What about the GI50 [43] of the same compound?
Its GI50 is less than 10 nM.

And the TGI [43]?
The TGI was less than 10 nM.

What about the GI50 [44] of the same compound?
The GI50 was less than 10 nM.

And the TGI [44]?
The TGI was less than 10.4 nM.

What about the GI50 [45] of the same compound?
Its GI50 is less than 10 nM.

What about the TGI [45] of the same compound?
Its TGI is 11300 nM.

What about the GI50 [46] of the same compound?
The GI50 was less than 10 nM.

What about the TGI [46] of the same compound?
Its TGI is less than 10 nM.

What about the GI50 [47] of the same compound?
The GI50 was less than 10 nM.

What about the TGI [47] of the same compound?
Its TGI is 6400 nM.

And the GI50 [48]?
Its GI50 is less than 10 nM.

And the TGI [48]?
Its TGI is 5750 nM.

And the GI50 [49]?
Its GI50 is less than 10 nM.

What about the TGI [49] of the same compound?
The TGI was less than 10 nM.

Which results are given for `CC1CCCc2c1nn(C(=O)/C=C(\N)c1ccccc1)c2N` (stereo not drawn)?
GI50 [21]: 11900 nM; TGI [21]: > 100000 nM

`CCCCCCCCCCN=C(c1ccc(N(C)C)cc1)c1ccc(N(C)C)cc1` was tested. Which GI50 [21] did it give?
Its GI50 is 383 nM.

And the TGI [21]?
The TGI was 36700 nM.

For `Cc1cc(Nc2nc(SCc3ccc(C(=O)Nc4ccc(F)cc4N)cc3)nn3cccc23)n[nH]1`, which GI50 [21] is on record?
The GI50 was 432 nM.

What about the TGI [21] of the same compound?
The TGI was 36000 nM.

Which GI50 [21] does the source give for `Cn1c(/C(C#N)=C/c2ccc3ccccc3c2)cc2ccccc21` here?
Its GI50 is 422 nM.

What about the TGI [21] of the same compound?
Its TGI is greater than 100000 nM.

Which results are given for `CC(=O)N[C@H](C(=O)N[C@@H](CCCNC(=N)N)C(=O)N[C@@H](CCCCN)C(=O)N[C@@H](CCCNC(=N)N)C(=O)N[C@]1(C)CCCCCC/C=C\CCC[C@@](C)(C(=O)N[C@@H](CCCNC(=N)N)C(=O)N[C@@H](CCC(=O)O)C(=O)N[C@@H](CC(C)C)C(=O)N[C@H](C(=O)N[C@@H](CCC(=O)O)C(N)=O)C(C)C)NC(=O)[C@H](CCC(N)=O)NC(=O)[C@H](CC(C)C)NC(=O)[C@H](CC(C)C)NC(=O)[C@H](CCCNC(=N)N)NC(=O)[C@H](CCCNC(=N)N)NC(=O)[C@H](CC(C)C)NC1=O)C(C)C`?
GI50 [21]: 3820 nM; TGI [21]: 32600 nM

What does the source list for `NC(=O)C1(N2CCCCC2)CCN(CCCC(=O)c2ccc(F)cc2)CC1`?
GI50 [21]: 20.4 nM; TGI [21]: 68.2 nM

What does the source list for `Cc1ncc(C(=O)Nc2ccc(CN3CCN(C)CC3)c(C(F)(F)F)c2)cc1C#Cc1cnc(NC2CC2)c2ncccc12`?
GI50 [21]: 3920 nM; TGI [21]: 9320 nM

Which GI50 [21] does the source give for `CCN(CC)CCNC(=O)c1cn2ncnc(Oc3ccc(NC(=O)Nc4ccc(Cl)c(C(F)(F)F)c4)c(F)c3)c2c1C` here?
The GI50 was 1570 nM.

And the TGI [21]?
The TGI was 3200 nM.

With `O=C(/C=C/c1ccccc1)CC(c1ccccc1)N1CCOCC1` (stereo not drawn) as the compound, how does the GI50 [21] read?
Its GI50 is 2050 nM.

And the TGI [21]?
The TGI was 5560 nM.

How did the GI50 [21] turn out when `c1ccc(Cn2cnc3ccc(-c4nc(-c5ccc6c(c5)ncn6C5CCCCC5)cn5ccnc45)cc32)cc1` was run?
Its GI50 is 1920 nM.

What about the TGI [21] of the same compound?
The TGI was 4430 nM.
